# Reference: patent US10553890B2, “Aqueous redox flow batteries” (UCHICAGO ARGONNE, LLC, priority 2017, dated 2020)
# Entries after “also recorded” stand apart in the source; their conditions may differ.
# Key:
# Format in all cases: physicochemical
# [1] = Cyclic voltammetry (three-electrode cell, glassy carbon working electrode, Ag/AgCl reference); conditions: for redox stability (irreversible side reactions): 5 mV/s, cycling 0 V up to about 1.2 V; for oxidation potential: glassy carbon; for observed oxidation potential: 1 mM in 0.5 M sulfuric acid, scan rate 20 mV/s, 0 V to 1 V
# Procedure: Cyclic voltammetry (CV) measurements: CV experiments were performed in custom-made three-electrode electrochemical cells with 3 mm diameter glassy carbon working electrode, a Ag/AgCl reference electrode and a platinum wire counter electrode using 1470E SOLARTRON ANALYTICAL INSTRUMENT.
# [2] = Solubility in aqueous acid; conditions: aqueous acid / acidic conditions
# [3] = Galvanostatic bulk electrolysis cycling; conditions: 1 mM in 3.0 M sulfuric acid, constant current 2.68 mA, cut-off 0.25 V to 0.85 V
# Procedure: Galvanostatic bulk electrolysis: Galvanostatic cycling test was performed with a three-electrode bulk electrolysis electrochemical cell using 1470E SOLARTRON ANALYTICAL INSTRUMENT. Reticulated vitreous carbon was used as the working electrode, Ag/AgCl electrode was used as the reference electrode and coiled platinum enclosed in glass tubes with porous ceramic frit was used as the counter electrode.
# [4] = Diffusion coefficient measurement using Randle-Sevcik equation; conditions: scan rates 10-100 mV/s
# Procedure: Diffusion coefficient measurement: Diffusion coefficients were measured using Randle-Sevcik equation as shown below. In this equation, ip is the peak current, n represents the number of electrons transferred in the redox reaction, F is the Faraday's constant, A is the electrode area, c represents the concentration, v is the scan rate, D is the diffusion coefficient, R is the gas constant and T is the absolute temperature.
# [5] = 5 mM in 1.0 M sulfuric acid, scan rate 5 mV/s
SMILES,redox stability (irreversible side reactions) ([1]; 5 mM in 1.0 M sulfuric acid),"oxidation potential [1, 5]",observed oxidation potential [1],capacity and capacity retention [3],further results
"CC1(C)CC(N)CC(C)(C)N1[O] [4-NH2-TEMPO, 4-amino-2,2,6,6-tetramethylpiperidyl-1-oxyl]","irreversible reduction; also recorded: greater redox stability (i.e., less severe irreversible side reactions) than 4-OH-TEMPO",0.92 V (vs. AG/AgCl),,,"oxidation potential higher than 4-OH-TEMPO [1, 5]: 0.09 V; solubility [2]: higher solubility than 4-OH-TEMPO"
"CC1(C)CC(O)CC(C)(C)N1[O] [4-OH-TEMPO, reference compound]",irreversible reduction,0.83 V (vs. AG/AgCl),,,
"CN(C)c1cc(S(=O)(=O)O)c(O)c(S(=O)(=O)O)c1 [DADPS, 5-(dimethylamino)-2-hydroxybenzene-1,3-disulfonic acid]",,,0.66 V (vs. AG/AgCl),very similar,potential in bulk electrolysis relative to unsubstituted aminophenol (DMAP) [3]: increased potential
"CN(C)c1ccc(O)cc1 [DMAP, 4-dimethylaminophenol]",,,0.56 V (vs. AG/AgCl),very similar,diffusion coefficient ([4]; 1 mM in 0.5 M sulfuric acid): 3.9×10^−6 cm^2/s
"NCCc1ccc(O)c(O)c1 [dopamine, 3,4-dihydroxyphenethylamine, reference compound]",,,,,diffusion coefficient ([4]; 50 mM in 0.5 M sulfuric acid): 2.43×10^−6 cm^2/s
